Broadly, the share remaining is the share of the starting amount still present when the sample was taken. Read a low share remaining as a greater loss. As a reminder, the MIC is the lowest concentration that inhibits growth of the organism.

One series has as its system P. aeruginosa PA1. The series is classed as cell-based, Pseudomonas aeruginosa. Conditions: P. aeruginosa PA1 clinical isolate. The text has this:
(§1) Escherichia coli (PCM 2057 = ATCC 25922), Staphylococcus aureus (PCM 2054 = ATCC 25923), Staphylococcus epidermidis (PCM 2118 = ATCC 14990), Bacillus subtilis (PCM 2224 = ATCC 9799), Bacillus cereus (PCM 482 = ATCC 10702) and Pseudomonas aeruginosa (PCM 499 = ATCC 10145) were obtained from the Polish Collection of Microorganisms. Fungi strains Candida albicans (CCM 8186 = CNTC 49/64), Candida glabrata (CCM 8270 = ATCC 90030), Candida parapsilosis (CCM 8260 = ATCC 22019) and Candida krusei (CCM 8271 = ATCC 6258) were acquired from the Czech Collection of Microorganisms. S. aureus USA300 (wild type strain), the reference strain of Klebsiella pneumoniae (ATCC 13883) and clinical isolates of Pseudomonas aeruginosa (PA1, PA2) collected from nonrelated patients admitted to the Stefan Zeromski Specialist Municipal Hospital in Krakow (Poland) were kindly provided by the research group of the Department of Microbiology, Faculty of Biochemistry, Biophysics and Biotechnology, Jagiellonian University, Krakow, Poland.
(§2) Luria-Bertani broth (LB) and Sabouraud Dextrose broth (SB) (Biocorp, Poland) were used for cultivation of bacteria and fungi strains, respectively. The antimicrobial activity of the peptides were analyzed through determination of MIC (minimal inhibitory concentration) parameters according to Clinical and Laboratory Standards (CLSI) guidelines developed for aerobic bacteria and yeasts, respectively. Mueller-Hinton broth (MHB) was used as the working medium for all bacterial strains, while in the case of fungi, RPMI-1640 (with L-glutamine, without sodium bicarbonate) growth medium buffered with MOPS (morpholinepropanesulfonic acid) and supplemented with 2% glucose was used. Inoculum was prepared from freshly grown cultures of microorganisms at their exponential phase of growth. […] Plates were then incubated for 24 h at 37 °C in the case of bacteria and at 35 °C in the case of fungi. After that time, absorbance was read at 590 nm with a Perkin Elmer plate reader. Cultures without peptide were treated as positive control, while uninoculated media were defined as negative control. All measurements were run at least in triplicate.

The subject of another series is P. aeruginosa PA2. The series is classed as cell-based, Pseudomonas aeruginosa. Conditions: P. aeruginosa PA2 clinical isolate.
Text: as §1, §2

Series [1] can be described thus: Serum stability in 25% human serum (RP-UPLC). Conditions: male, amount of the intact compound, after 5 h of incubation in 25% human serum, 37 °C. As for the experimental part:
At the beginning of the experiment, 25% human serum (human serum, from human male AB plasma, Sigma-Aldrich) was centrifuged at 12,000 rpm for 10 min in order to remove the excessive amount of lipids in the serum preparation, and the supernatant was collected and incubated at 37 °C for 15 min under shaking. The assay was initiated upon the addition of the peptide to the serum yielding a final peptide concentration of 75 µg/mL. The 50 µL aliquots of the incubated mixtures were taken at the following time intervals: 0, 30, 60, 120, 240 and 300 min. The aliquots were mixed with 50 µL of absolute ethanol, incubated on ice for 15 min to precipitate serum proteins and then centrifuged (12,000 rpm, 10 min). The supernatants were collected and lyophilized. Dry samples were further dissolved in 100 µL of HPLC-grade water and then analyzed. […]
RP-UPLC analysis was performed using Nexera system (Shimadzu Europe GmbH, Duisburg, Germany) with C12 Jupiter Proteo column (150 × 2 mm, 90Å, 4 micron) (Phenomenex, USA) applying a linear aqueous acetonitrile gradient 1–80%B in 20 min using solutions A (0.1% TFA in water) and B (0.1%TFA in 80% acetonitrile) with a flow rate 0.6 mL/min and detection at 220 nm. The quantity of the intact peptide at each time point was expressed as a percentage of the peak area with respect to time “zero” (100%).

For series [2], the system named is S. aureus PCM 2054. Kind of series: MIC, broth microdilution. The series is classed as cell-based, Staphylococcus aureus. Conditions: S. aureus PCM 2054, standard Mueller-Hinton broth, 24 h.
Text: as §1, §2
For orientation: In broth dilution the organism is exposed to a series of concentrations in liquid medium.

A further series has as its system K.pneumoniae ATCC 13883. In kind it is cell-based, Klebsiella pneumoniae. Conditions: K.pneumoniae ATCC 13883.
Text: as §1, §2

For series [3], the system named is S. aureus PCM 2054. In kind it is cell-based, Staphylococcus aureus. Conditions: S. aureus PCM 2054, Mueller-Hinton broth + 1% human serum. The method, then:
Additionally, we performed a comparative analysis of MICs obtained for the tested compounds against S. aureus PCM2054 in two types of growth medium, i.e., the standard MHB and MHB supplemented with 1% human serum and in the absence of 1% serum. The assay was performed as described in 4.3.1.

A further series has as its system S. aureus USA300. In kind it is cell-based, Staphylococcus aureus.
Text: as §1, §2

A short description of series [4]: ITC, binding to zwitterionic membrane. Conditions: POPC vesicles, 25 °C. As for the experimental part: The ITC experiments were performed according to the previously reported protocol in PBS (pH 7.4) at 25 °C using an AutoITC isothermal titration calorimeter (MicroCal Inc., Northampton, USA) with a 1.4491-mL sample and reference cells filled with distilled water. In each experiment, 29 injections of 10.02 µL each (2 µL for the first only) of a liposome solution at a concentration of 1.31 mM were added into a 0.05 mM and/or 0.1 mM peptide solution. An initial 2-μL injection was discarded from each dataset in order to remove the effect of titrant diffusion across the syringe tip during the equilibration process. Each injection lasted 20 s. The titrant was injected at 4 min intervals to ensure that the titration peak returned to the baseline before the next injection. To ensure a homogeneous mixing in the cell, the stirrer speed was kept constant at 300 rpm.
A complete binding of the peptide to lipid vesicles provides the possibility for determination of the total binding enthalpy (∆H) as well as a binding constant (Ka), reflecting the affinity of the lipopeptide to liposomes, stoichiometry of binding (n), that is, the number of phospholipids per peptide, by fitting the titration result data to one set of sites’ model using Origin 7 from MicroCal. Changes in entropy (∆S) and the Gibbs free energy (∆G) were calculated from Equation (1), where factor 55.5 is the molar concentration of water, R is the gas constant (1.986 cal·mol^−1·K^−1) and T is the absolute temperature:∆G = -RTln(55.5Ka) = ∆H-T∆S(1)
The liposomes for ITC experiments were made of POPC or POPG lipids. The lipids were dissolved in a chloroform:methanol (2:1; v/v) mixture, evaporated under nitrogen and desiccated under vacuum overnight to remove any residual solvents. Afterwards, the dry lipid film was resuspended in a phosphate buffer solution and shaken for 2 h at room temperature (phase transition point, Tm = −2 °C) to obtain multilamellar vesicles (MLVs). […]
Background: ITC needs no label: the signal is the heat of the interaction.

Values after ≈ are worked out from the molar mass of the structure shown. Where a SMILES comes first, the peptide text is derived from it. The star is where a group is joined. Pentanoyl = CCCCC(=O)*

Turning to `CCCCC(=O)N[C@H](C(=O)N[C@@H](CCCCN)C(=O)N[C@@H](CCCCN)C(=O)N[C@H](C(=O)N[C@@H](CC(C)C)C(=O)N[C@@H](CO)C(=O)N[C@@H](CCCCN)C(=O)N[C@H](C(=O)N[C@@H](CCCCN)C(=O)N[C@@H](CCCCN)C(=O)N[C@@H](CC(C)C)C(=O)N[C@@H](CC(C)C)C(N)=O)[C@@H](C)CC)[C@@H](C)CC)[C@@H](C)CC` [Compound C5-DK5] (Pentanoyl-IKKILSKIKKLL-NH2), the “MIC100” value is on record as 25 µg/mL (≈ 16.6 µM) in the series on P. aeruginosa PA1; 25 µg/mL (≈ 16.6 µM) with P. aeruginosa PA2; 12.5 µg/mL (≈ 8.29 µM) in the series on S. aureus PCM 2054 [2]; 50 µg/mL (≈ 33.2 µM) against K.pneumoniae ATCC 13883; 25 µg/mL (≈ 16.6 µM) in the series with S. aureus USA300. In addition, the fraction remaining at 5 h, 75 µg/mL in series [1] worked out at 46.2%. The MIC in the series with S. aureus PCM 2054 [3] is 25 µg/mL. Moreover, the “binding constants (order of)” value in series [4] is recorded as “either a lack of interactions or that the binding was too weak to be detectable by ITC”.

The values above are taken from article PMC8269107, “Lipidation of Temporin-1CEb Derivatives as a Tool for Activity Improvement, Pros and Cons of the Approach” (International Journal of Molecular Sciences, 2021).
